Assay results: patent US20190185417A1, “NOVEL ANTIBIOTICS” (priority 2016, published 2019)

Tests used:
Format in all cases: cell-based
[1] = tested on: Haemophilus influenzae (ATCC 49247); assay: MIC by broth microdilution; conditions: Table 2, Example 2
Description: (§1) The antibacterial potency of the test article(s) was measured using the in vitro broth microdilution assay under assay conditions described by the Clinical and Laboratory Standards Institute. […] The test substance was dissolved in 100% DMSO (unless stated below), suspended completely by sonication or vortexing, diluted by 2-fold serial titrations in the same vehicle, for a total of 11 test concentrations. A 4 μL aliquot of each dilution was added to 196 μL of broth medium seeded with the organism suspension in wells of a 96 well plate (bacterial count: 2−8×10^5 colony forming units/mL final). The final volume was 200 μL in each well and the final DMSO concentration was 2 percent. Following incubation, the test plates were visually examined and wells were scored for growth or complete growth inhibition to define the minimum inhibitory concentration. Each test substance was evaluated in duplicate and the results below are the duplicate test values. Vehicle-control and an active reference agent were used as blank and positive controls, respectively.

[2] = tested on: Pseudomonas aeruginosa (ATCC 27853); assay: MIC by broth microdilution; conditions: Table 2, Example 2
Description: as §1, with “DMSO,” for “DMSO (unless stated below),”, “incubation for 1 day at 36° C.,” for “incubation,”, “were reported as” for “below are”, “respectively. Microorganisms tested were Acinetobacter baumannii (ATCC 17978), Enterococcus faecalis (ATCC 29212), Enterococcus faecium VanA (ATCC 700221), Escherichia coli (ATCC 25922), Escherichia coli efflux defective DEL-tolC (JW5503), Heamophilus influenzae (ATCC 49247), Klebsiella pneumoniae (ATCC 43816), Pseudomonas aeruginosa (ATCC 27853), Pseudomonas aeruginosa MDR (NTUH-974), Staphylococcus aureus (ATCC 29213), Staphylococcus aureus MRSA (ATCC 33591) and Streptococcous pneumoniae (ATCC 46919). H. influenzae was grown in Haemophilus Test Medium and S. pneumoniae was grown in cation adjusted Muller-Hinton Broth II with 5% lysed horse blood. All other microorganisms were grown in cation adjusted Muller-Hinton Broth II.” for “respectively.”
as §1

[3] = tested on: Escherichia coli (ATCC 25922); assay: MIC by broth microdilution; conditions: Table 2, Example 2
Description: as §1, with “DMSO,” for “DMSO (unless stated below),”, “incubation for 1 day at 36° C.,” for “incubation,”, “were reported as” for “below are”, “respectively. Microorganisms tested were Acinetobacter baumannii (ATCC 17978), Enterococcus faecalis (ATCC 29212), Enterococcus faecium VanA (ATCC 700221), Escherichia coli (ATCC 25922), Escherichia coli efflux defective DEL-tolC (JW5503), Heamophilus influenzae (ATCC 49247), Klebsiella pneumoniae (ATCC 43816), Pseudomonas aeruginosa (ATCC 27853), Pseudomonas aeruginosa MDR (NTUH-974), Staphylococcus aureus (ATCC 29213), Staphylococcus aureus MRSA (ATCC 33591) and Streptococcous pneumoniae (ATCC 46919). H. influenzae was grown in Haemophilus Test Medium and S. pneumoniae was grown in cation adjusted Muller-Hinton Broth II with 5% lysed horse blood. All other microorganisms were grown in cation adjusted Muller-Hinton Broth II.” for “respectively.”
as §1

[4] = tested on: Klebsiella pneumoniae (ATCC 43816); assay: MIC by broth microdilution; conditions: Table 2, Example 2
Description: as §1, with “DMSO,” for “DMSO (unless stated below),”, “incubation for 1 day at 36° C.,” for “incubation,”, “were reported as” for “below are”, “respectively. Microorganisms tested were Acinetobacter baumannii (ATCC 17978), Enterococcus faecalis (ATCC 29212), Enterococcus faecium VanA (ATCC 700221), Escherichia coli (ATCC 25922), Escherichia coli efflux defective DEL-tolC (JW5503), Heamophilus influenzae (ATCC 49247), Klebsiella pneumoniae (ATCC 43816), Pseudomonas aeruginosa (ATCC 27853), Pseudomonas aeruginosa MDR (NTUH-974), Staphylococcus aureus (ATCC 29213), Staphylococcus aureus MRSA (ATCC 33591) and Streptococcous pneumoniae (ATCC 46919). H. influenzae was grown in Haemophilus Test Medium and S. pneumoniae was grown in cation adjusted Muller-Hinton Broth II with 5% lysed horse blood. All other microorganisms were grown in cation adjusted Muller-Hinton Broth II.” for “respectively.”
as §1

[5] = tested on: Acinetobacter baumannii (ATCC 17978); assay: MIC by broth microdilution; conditions: Table 2, Example 2
Description: as §1, with “DMSO,” for “DMSO (unless stated below),”, “incubation for 1 day at 36° C.,” for “incubation,”, “were reported as” for “below are”, “respectively. Microorganisms tested were Acinetobacter baumannii (ATCC 17978), Enterococcus faecalis (ATCC 29212), Enterococcus faecium VanA (ATCC 700221), Escherichia coli (ATCC 25922), Escherichia coli efflux defective DEL-tolC (JW5503), Heamophilus influenzae (ATCC 49247), Klebsiella pneumoniae (ATCC 43816), Pseudomonas aeruginosa (ATCC 27853), Pseudomonas aeruginosa MDR (NTUH-974), Staphylococcus aureus (ATCC 29213), Staphylococcus aureus MRSA (ATCC 33591) and Streptococcous pneumoniae (ATCC 46919). H. influenzae was grown in Haemophilus Test Medium and S. pneumoniae was grown in cation adjusted Muller-Hinton Broth II with 5% lysed horse blood. All other microorganisms were grown in cation adjusted Muller-Hinton Broth II.” for “respectively.”
as §1

[6] = tested on: Pseudomonas aeruginosa, MDR (NTUH-974); assay: MIC by broth microdilution; conditions: Table 2, Example 2
Description: as §1, with “DMSO,” for “DMSO (unless stated below),”, “incubation for 1 day at 36° C.,” for “incubation,”, “were reported as” for “below are”, “respectively. Microorganisms tested were Acinetobacter baumannii (ATCC 17978), Enterococcus faecalis (ATCC 29212), Enterococcus faecium VanA (ATCC 700221), Escherichia coli (ATCC 25922), Escherichia coli efflux defective DEL-tolC (JW5503), Heamophilus influenzae (ATCC 49247), Klebsiella pneumoniae (ATCC 43816), Pseudomonas aeruginosa (ATCC 27853), Pseudomonas aeruginosa MDR (NTUH-974), Staphylococcus aureus (ATCC 29213), Staphylococcus aureus MRSA (ATCC 33591) and Streptococcous pneumoniae (ATCC 46919). H. influenzae was grown in Haemophilus Test Medium and S. pneumoniae was grown in cation adjusted Muller-Hinton Broth II with 5% lysed horse blood. All other microorganisms were grown in cation adjusted Muller-Hinton Broth II.” for “respectively.”
as §1

[7] = tested on: Escherichia coli, efflux defective DEL-tolC (JW5503); assay: MIC by broth microdilution; conditions: Table 2, Example 2
Description: as §1, with “DMSO,” for “DMSO (unless stated below),”, “incubation for 1 day at 36° C.,” for “incubation,”, “were reported as” for “below are”, “respectively. Microorganisms tested were Acinetobacter baumannii (ATCC 17978), Enterococcus faecalis (ATCC 29212), Enterococcus faecium VanA (ATCC 700221), Escherichia coli (ATCC 25922), Escherichia coli efflux defective DEL-tolC (JW5503), Heamophilus influenzae (ATCC 49247), Klebsiella pneumoniae (ATCC 43816), Pseudomonas aeruginosa (ATCC 27853), Pseudomonas aeruginosa MDR (NTUH-974), Staphylococcus aureus (ATCC 29213), Staphylococcus aureus MRSA (ATCC 33591) and Streptococcous pneumoniae (ATCC 46919). H. influenzae was grown in Haemophilus Test Medium and S. pneumoniae was grown in cation adjusted Muller-Hinton Broth II with 5% lysed horse blood. All other microorganisms were grown in cation adjusted Muller-Hinton Broth II.” for “respectively.”
as §1

[8] = tested on: Gram-negative bacteria; assay: MIC by broth microdilution, overall statement in words; conditions: Example 2, statement in words
Description: as §1, with “DMSO,” for “DMSO (unless stated below),”, “incubation for 1 day at 36° C.,” for “incubation,”, “were reported as” for “below are”, “respectively. Microorganisms tested were Acinetobacter baumannii (ATCC 17978), Enterococcus faecalis (ATCC 29212), Enterococcus faecium VanA (ATCC 700221), Escherichia coli (ATCC 25922), Escherichia coli efflux defective DEL-tolC (JW5503), Heamophilus influenzae (ATCC 49247), Klebsiella pneumoniae (ATCC 43816), Pseudomonas aeruginosa (ATCC 27853), Pseudomonas aeruginosa MDR (NTUH-974), Staphylococcus aureus (ATCC 29213), Staphylococcus aureus MRSA (ATCC 33591) and Streptococcous pneumoniae (ATCC 46919). H. influenzae was grown in Haemophilus Test Medium and S. pneumoniae was grown in cation adjusted Muller-Hinton Broth II with 5% lysed horse blood. All other microorganisms were grown in cation adjusted Muller-Hinton Broth II.” for “respectively.”
as §1

SMILES | MIC [1] [µg/mL] | MIC [2] [µg/mL] | MIC [3] [µg/mL] | MIC [4] [µg/mL] | MIC [5] [µg/mL] | MIC [6] [µg/mL] | MIC [7] [µg/mL] | effectiveness against the bacteria of Table 2 [8]
CC(=O)ONc1ccc(CCc2cc(CCc3ccc(NOC(C)=O)cc3)cc(CCc3ccc(NOC(C)=O)cc3)c2)cc1 [Compound 9 (TSB016)] | >32.0 | >32.0 | >32.0 | >32.0 | >32.0 | >32.0 | >32.0 | –
N#Cc1ccc(CCc2cc(CCc3ccc(C#N)cc3)cc(CCc3ccc(C#N)cc3)c2)cc1 [Compound 4 (TSB064)] | >32.0 | >32.0 | >32.0 | >32.0 | >32.0 | >32.0 | >32.0 | –
CN(C)Cc1ccc(/C=C/c2cc(/C=C/c3ccc(CC(N)=O)cc3)cc(/C=C/c3ccc(CC(=O)O)cc3)c2)cc1 [Compound 14] | >128 | >128 | >128 | >128 | >128 | >128 | >128 | ineffective
NC(=O)c1ccc(CCc2cc(CCc3ccc(C(N)=O)cc3)cc(CCc3ccc(C(N)=O)cc3)c2)cc1 [Compound 6 (TSB030)] | >32.0 | >32.0 | >32.0 | >32.0 | >32.0 | >32.0 | >32.0 | –
NC(=O)Cc1ccc(/C=C/c2cc(/C=C/c3ccc(CC(N)=O)cc3)cc(/C=C/c3ccc(CC(N)=O)cc3)c2)cc1 [Compound 17] | >128 | >128 | >128 | >128 | >128 | >128 | >128 | –
CN(C)C(=O)c1ccc(CCc2cc(CCc3ccc(C(=O)N(C)C)cc3)cc(CCc3ccc(C(=O)N(C)C)cc3)c2)cc1 [Compound 5 (TSB032)] | >32.0 | >32.0 | >32.0 | >32.0 | >32.0 | >32.0 | >32.0 | –
CN(C)c1ccc(/C=C/c2cc(/C=C/c3ccc(N(C)C)cc3)cc(/C=C/c3ccc(N(C)C)cc3)c2)cc1 [Compound 10] | >128 | >128 | >128 | >128 | >128 | >128 | >128 | –
